Paper PMC6844396, “Design, synthesis and biological evaluation of novel 1H-1,2,4-triazole, benzothiazole and indazole-based derivatives as potent FGFR1 inhibitors viafragment-based virtual screening” (Journal of Enzyme Inhibition and Medicinal Chemistry, 2019)

Legend:
[1] = biological target: IGF1R (Homo sapiens, UniProt P08069); experiment: ELISA kinase assay, IGF1R; format: biochemical; details: kinase selectivity panel
Description: (§1) The kinase profiling of 9 u was conducted using Elisa kinase assay and the Eurofins Kinase Profiler Selectivity Testing Service.
(§2) Elisa kinase assay. The effects of the indicated compounds on the activities of receptor tyrosine kinases were determined using enzyme-linked immunosorbent assays (ELISAs) with purified recombinant proteins. Briefly, 20 μg/mL poly (Glu,Tyr)4:1 (Sigma, St Louis, MO, USA) was pre-coated in 96-well plates as a substrate. A 50 μL aliquot of 10 μmol/L ATP solution diluted in kinase reaction buffer (50 mmol/L HEPES [pH 7.4], 50 mmol/L MgCl2, 0.5 mmol/L MnCl2, 0.2 mmol/L Na3VO4, and 1 mmol/L DTT) was added to each well; 1 μL of different compounds with indicated concentration diluted in 1% DMSO (v/v) (Sigma, St Louis, MO, USA) were then added to each reaction well. DMSO (1%, v/v) was used as the negative control. The kinase reaction was initiated by the addition of purified tyrosine kinase proteins (FGFR1, FGFR2, FGFR3, FGFR4, ALK, Bcr-Abl, EPH-A2, Flt-1, RET, c-Src, IGF1R, c-Met, EGFR, ErbB2) diluted in 49 μL of kinase reaction buffer solution. […] The reaction was terminated by the addition of 50 μL of 2 mol/l H2SO4 as the colour changed, and the plate was analysed using a multi-well spectrophotometer (SpectraMAX 190, Molecular Devices, Sunnyvale, CA, USA) at 490 nm. […] The IC50 values were calculated from the inhibition curves in two separate experiments.

[2] = biological target: ALK (Homo sapiens, UniProt Q9UM73); experiment: ELISA kinase assay, ALK; format: biochemical; details: kinase selectivity panel
Description: as §1, §2

[3] = biological target: FGFR2 (Homo sapiens, UniProt P21802); experiment: ELISA kinase assay, FGFR2; format: biochemical; details: kinase selectivity panel
Description: DMSO (1%, v/v) was used as the negative control. […] Anti-phosphotyrosine (PY99) antibody (100 μL; 1:500, diluted in 5 mg/mL BSA T-PBS) was then added. […] The IC50 values were calculated from the inhibition curves in two separate experiments.

[4] = biological target: EPH-A2 (Homo sapiens, UniProt P29317); experiment: ELISA kinase assay, EPH-A2; format: biochemical; details: kinase selectivity panel
Description: as §1, §2

[5] = biological target: ErbB2 (Homo sapiens, UniProt P04626); experiment: ELISA kinase assay, ErbB2; format: biochemical; details: kinase selectivity panel
Description: as §1, §2

[6] = biological target: c-Src (Homo sapiens, UniProt P12931); experiment: ELISA kinase assay, c-Src; format: biochemical; details: kinase selectivity panel
Sequence of c-Src (P12931 whole entry, species assumed): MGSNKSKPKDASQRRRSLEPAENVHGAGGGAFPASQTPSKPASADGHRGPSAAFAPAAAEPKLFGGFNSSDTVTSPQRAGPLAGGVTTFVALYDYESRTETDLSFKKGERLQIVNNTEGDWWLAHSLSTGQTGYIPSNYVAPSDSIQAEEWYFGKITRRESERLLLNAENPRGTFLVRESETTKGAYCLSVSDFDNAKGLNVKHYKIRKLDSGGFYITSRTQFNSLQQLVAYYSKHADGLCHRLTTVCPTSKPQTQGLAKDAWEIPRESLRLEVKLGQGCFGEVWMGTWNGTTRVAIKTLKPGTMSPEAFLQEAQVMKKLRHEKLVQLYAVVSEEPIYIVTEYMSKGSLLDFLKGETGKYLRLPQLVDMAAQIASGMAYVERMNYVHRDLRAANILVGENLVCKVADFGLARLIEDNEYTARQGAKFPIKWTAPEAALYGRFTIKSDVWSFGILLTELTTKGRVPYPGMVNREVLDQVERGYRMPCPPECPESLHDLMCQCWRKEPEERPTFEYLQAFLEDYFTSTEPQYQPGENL
Description: as §1, §2

[7] = biological target: FGFR1 (Homo sapiens, UniProt P11362); experiment: ELISA kinase assay, FGFR1; format: biochemical; details: for IC50: ELISA, average values from two separate experiments
Sequence of FGFR1 (P11362 22-822): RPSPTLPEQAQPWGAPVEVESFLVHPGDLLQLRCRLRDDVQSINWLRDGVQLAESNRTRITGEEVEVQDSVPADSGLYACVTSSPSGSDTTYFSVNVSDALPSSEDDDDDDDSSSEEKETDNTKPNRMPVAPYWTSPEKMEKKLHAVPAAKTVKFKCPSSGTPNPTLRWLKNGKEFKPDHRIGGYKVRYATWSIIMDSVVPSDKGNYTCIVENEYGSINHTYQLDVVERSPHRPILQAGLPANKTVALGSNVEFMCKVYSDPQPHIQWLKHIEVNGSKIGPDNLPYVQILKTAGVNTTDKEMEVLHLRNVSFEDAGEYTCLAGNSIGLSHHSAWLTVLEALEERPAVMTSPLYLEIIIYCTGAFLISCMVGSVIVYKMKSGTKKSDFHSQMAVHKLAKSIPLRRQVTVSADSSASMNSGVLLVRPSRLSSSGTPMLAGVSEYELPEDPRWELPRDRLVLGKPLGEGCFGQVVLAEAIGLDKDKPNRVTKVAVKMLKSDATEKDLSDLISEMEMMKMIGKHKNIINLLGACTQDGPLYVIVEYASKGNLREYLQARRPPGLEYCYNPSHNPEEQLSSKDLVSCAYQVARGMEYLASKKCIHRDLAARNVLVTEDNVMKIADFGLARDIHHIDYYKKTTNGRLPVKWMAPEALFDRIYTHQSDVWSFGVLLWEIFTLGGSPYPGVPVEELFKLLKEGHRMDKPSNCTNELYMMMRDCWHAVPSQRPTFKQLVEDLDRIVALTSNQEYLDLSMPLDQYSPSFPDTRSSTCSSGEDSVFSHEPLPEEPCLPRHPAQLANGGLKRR
Description: Elisa kinase assay. The effects of the indicated compounds on the activities of receptor tyrosine kinases were determined using enzyme-linked immunosorbent assays (ELISAs) with purified recombinant proteins. Briefly, 20 μg/mL poly (Glu,Tyr)4:1 (Sigma, St Louis, MO, USA) was pre-coated in 96-well plates as a substrate. A 50 μL aliquot of 10 μmol/L ATP solution diluted in kinase reaction buffer (50 mmol/L HEPES [pH 7.4], 50 mmol/L MgCl2, 0.5 mmol/L MnCl2, 0.2 mmol/L Na3VO4, and 1 mmol/L DTT) was added to each well; 1 μL of different compounds with indicated concentration diluted in 1% DMSO (v/v) (Sigma, St Louis, MO, USA) were then added to each reaction well. DMSO (1%, v/v) was used as the negative control. The kinase reaction was initiated by the addition of purified tyrosine kinase proteins (FGFR1, FGFR2, FGFR3, FGFR4, ALK, Bcr-Abl, EPH-A2, Flt-1, RET, c-Src, IGF1R, c-Met, EGFR, ErbB2) diluted in 49 μL of kinase reaction buffer solution. After incubation for 60 min at 37 °C, the plate was washed three times with phosphate-buffered saline (PBS) containing 0.1% Tween 20 (T-PBS). Anti-phosphotyrosine (PY99) antibody (100 μL; 1:500, diluted in 5 mg/mL BSA T-PBS) was then added. After a 30 min incubation at 37 °C, the plate was washed three times, and 100 μL horseradish peroxidase-conjugated goat anti-mouse IgG (1:2000, diluted in 5 mg/mL BSA T-PBS) was added. The plate was then incubated at 37 °C for 30 min and washed 3 times. A 100 μL aliquot of a solution containing 0.03% H2O2 and 2 mg/mL o-phenylenediamine in 0.1 mol/l citrate buffer (pH 5.5) was added. The reaction was terminated by the addition of 50 μL of 2 mol/l H2SO4 as the colour changed, and the plate was analysed using a multi-well spectrophotometer (SpectraMAX 190, Molecular Devices, Sunnyvale, CA, USA) at 490 nm. The inhibition rate (%) was calculated using the following equation: [1-(A490/A490 control)] × 100%. The IC50 values were calculated from the inhibition curves in two separate experiments.

[8] = biological target: RET (Homo sapiens, UniProt P07949); experiment: ELISA kinase assay, RET; format: biochemical; details: kinase selectivity panel
Description: as §1, §2

[9] = test system: SNU-16 cell; experiment: Cell proliferation assay (CCK-8 or MTT), SNU-16; format: cell-based, Human; details: Homo sapiens, SNU-16 is FGFR2-amplified cell type, 72 h
Description: Human gastric cancer cell line SNU-16 was purchased from American Type Culture Collection (ATCC, Manssas, VA, USA). All the cell lines were routinely maintained in complete medium according to the suppliers’ recommendations.
Cells were seeded in 96-well tissue culture plates. On the day when seeding, the cells were exposed to various concentrations of compounds and further cultured for 72 h at 37 °C. Finally, cell proliferation was determined using Cell Counting Kit (CCK-8) or the thiazolyl blue tetrazolium bromide (MTT, from Sigma-Aldrich, St. Louis, MO, USA) assay. The IC50 values were calculated by concentration–response curve fitting using a SoftMax pro-based four-parameter method.

[10] = biological target: EGFR (Homo sapiens, UniProt P00533); experiment: ELISA kinase assay, EGFR; format: biochemical; details: kinase selectivity panel
Description: as §1, §2

[11] = biological target: Bcr-Abl (Homo sapiens, UniProt P00519); experiment: ELISA kinase assay, Bcr-Abl; format: biochemical; details: kinase selectivity panel
Description: as §1, §2

[12] = biological target: FGFR3 (Homo sapiens, UniProt P22607); experiment: ELISA kinase assay, FGFR3; format: biochemical; details: kinase selectivity panel
Sequence of FGFR3 (P22607 23-806): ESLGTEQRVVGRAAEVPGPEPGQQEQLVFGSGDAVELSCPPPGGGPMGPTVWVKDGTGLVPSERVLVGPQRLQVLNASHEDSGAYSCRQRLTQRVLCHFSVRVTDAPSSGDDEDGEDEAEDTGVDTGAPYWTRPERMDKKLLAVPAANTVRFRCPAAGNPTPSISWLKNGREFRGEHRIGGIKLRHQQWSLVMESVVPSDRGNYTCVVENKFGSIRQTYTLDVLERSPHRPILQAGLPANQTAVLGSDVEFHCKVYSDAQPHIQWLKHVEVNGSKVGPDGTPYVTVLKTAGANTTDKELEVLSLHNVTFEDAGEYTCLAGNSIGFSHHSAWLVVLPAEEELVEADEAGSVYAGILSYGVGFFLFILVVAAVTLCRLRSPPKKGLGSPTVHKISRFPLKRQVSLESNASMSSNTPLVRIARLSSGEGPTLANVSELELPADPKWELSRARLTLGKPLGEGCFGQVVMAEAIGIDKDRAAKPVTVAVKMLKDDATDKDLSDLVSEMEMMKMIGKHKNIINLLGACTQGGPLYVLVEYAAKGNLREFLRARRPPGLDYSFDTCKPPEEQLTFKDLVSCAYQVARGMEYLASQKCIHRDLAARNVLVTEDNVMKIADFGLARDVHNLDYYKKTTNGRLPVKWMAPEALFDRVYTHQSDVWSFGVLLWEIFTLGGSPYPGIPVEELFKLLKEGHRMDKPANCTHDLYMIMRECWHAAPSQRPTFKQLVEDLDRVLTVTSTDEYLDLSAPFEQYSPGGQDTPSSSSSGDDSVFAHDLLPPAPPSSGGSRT
Description: as §1, §2

[13] = biological target: Flt-1 (Homo sapiens, UniProt P17948); experiment: ELISA kinase assay, Flt-1; format: biochemical; details: kinase selectivity panel
Description: as §1, §2

[14] = biological target: c-Met (Homo sapiens, UniProt P08581); experiment: ELISA kinase assay, c-Met; format: biochemical; details: kinase selectivity panel
Sequence of c-Met (P08581 25-1390): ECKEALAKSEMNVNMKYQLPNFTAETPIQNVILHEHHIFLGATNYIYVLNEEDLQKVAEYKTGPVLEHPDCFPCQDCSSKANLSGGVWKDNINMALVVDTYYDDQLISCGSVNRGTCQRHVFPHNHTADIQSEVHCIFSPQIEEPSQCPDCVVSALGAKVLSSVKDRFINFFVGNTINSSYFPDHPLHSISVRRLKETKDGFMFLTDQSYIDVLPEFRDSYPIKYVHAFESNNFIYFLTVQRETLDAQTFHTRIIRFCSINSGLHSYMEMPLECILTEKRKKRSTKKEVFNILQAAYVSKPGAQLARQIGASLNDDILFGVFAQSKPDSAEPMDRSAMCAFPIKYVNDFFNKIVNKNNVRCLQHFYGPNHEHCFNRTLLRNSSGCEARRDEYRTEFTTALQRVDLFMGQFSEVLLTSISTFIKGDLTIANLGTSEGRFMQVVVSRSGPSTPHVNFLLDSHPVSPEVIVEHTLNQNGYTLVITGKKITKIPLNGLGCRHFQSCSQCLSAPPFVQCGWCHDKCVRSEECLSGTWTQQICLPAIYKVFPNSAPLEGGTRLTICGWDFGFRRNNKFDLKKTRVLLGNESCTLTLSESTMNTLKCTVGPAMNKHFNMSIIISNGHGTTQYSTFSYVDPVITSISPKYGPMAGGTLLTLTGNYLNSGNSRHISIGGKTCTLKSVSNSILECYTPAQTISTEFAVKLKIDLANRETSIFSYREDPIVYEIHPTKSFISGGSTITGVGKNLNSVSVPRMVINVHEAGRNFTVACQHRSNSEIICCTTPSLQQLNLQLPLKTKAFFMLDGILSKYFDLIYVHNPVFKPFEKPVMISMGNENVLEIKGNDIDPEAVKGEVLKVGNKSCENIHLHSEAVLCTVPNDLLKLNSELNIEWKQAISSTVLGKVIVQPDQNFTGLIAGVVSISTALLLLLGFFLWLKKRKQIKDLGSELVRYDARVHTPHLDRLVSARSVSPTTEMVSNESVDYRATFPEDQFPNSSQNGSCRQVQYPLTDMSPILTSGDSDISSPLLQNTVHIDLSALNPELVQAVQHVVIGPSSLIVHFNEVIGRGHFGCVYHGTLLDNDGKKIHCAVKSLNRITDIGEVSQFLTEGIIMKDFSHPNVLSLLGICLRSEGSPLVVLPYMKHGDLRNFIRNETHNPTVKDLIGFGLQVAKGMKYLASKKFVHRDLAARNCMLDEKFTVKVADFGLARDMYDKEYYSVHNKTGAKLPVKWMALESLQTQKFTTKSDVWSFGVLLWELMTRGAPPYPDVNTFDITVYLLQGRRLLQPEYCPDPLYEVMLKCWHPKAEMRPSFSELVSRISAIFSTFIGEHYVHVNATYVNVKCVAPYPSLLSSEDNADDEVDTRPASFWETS
Description: as §1, §2

[15] = biological target: FGFR4 (Homo sapiens, UniProt P22455); experiment: ELISA kinase assay, FGFR4; format: biochemical; details: kinase selectivity panel
Description: as §1, §2

Sequence of IGF1R (P08069 31-1367, species assumed): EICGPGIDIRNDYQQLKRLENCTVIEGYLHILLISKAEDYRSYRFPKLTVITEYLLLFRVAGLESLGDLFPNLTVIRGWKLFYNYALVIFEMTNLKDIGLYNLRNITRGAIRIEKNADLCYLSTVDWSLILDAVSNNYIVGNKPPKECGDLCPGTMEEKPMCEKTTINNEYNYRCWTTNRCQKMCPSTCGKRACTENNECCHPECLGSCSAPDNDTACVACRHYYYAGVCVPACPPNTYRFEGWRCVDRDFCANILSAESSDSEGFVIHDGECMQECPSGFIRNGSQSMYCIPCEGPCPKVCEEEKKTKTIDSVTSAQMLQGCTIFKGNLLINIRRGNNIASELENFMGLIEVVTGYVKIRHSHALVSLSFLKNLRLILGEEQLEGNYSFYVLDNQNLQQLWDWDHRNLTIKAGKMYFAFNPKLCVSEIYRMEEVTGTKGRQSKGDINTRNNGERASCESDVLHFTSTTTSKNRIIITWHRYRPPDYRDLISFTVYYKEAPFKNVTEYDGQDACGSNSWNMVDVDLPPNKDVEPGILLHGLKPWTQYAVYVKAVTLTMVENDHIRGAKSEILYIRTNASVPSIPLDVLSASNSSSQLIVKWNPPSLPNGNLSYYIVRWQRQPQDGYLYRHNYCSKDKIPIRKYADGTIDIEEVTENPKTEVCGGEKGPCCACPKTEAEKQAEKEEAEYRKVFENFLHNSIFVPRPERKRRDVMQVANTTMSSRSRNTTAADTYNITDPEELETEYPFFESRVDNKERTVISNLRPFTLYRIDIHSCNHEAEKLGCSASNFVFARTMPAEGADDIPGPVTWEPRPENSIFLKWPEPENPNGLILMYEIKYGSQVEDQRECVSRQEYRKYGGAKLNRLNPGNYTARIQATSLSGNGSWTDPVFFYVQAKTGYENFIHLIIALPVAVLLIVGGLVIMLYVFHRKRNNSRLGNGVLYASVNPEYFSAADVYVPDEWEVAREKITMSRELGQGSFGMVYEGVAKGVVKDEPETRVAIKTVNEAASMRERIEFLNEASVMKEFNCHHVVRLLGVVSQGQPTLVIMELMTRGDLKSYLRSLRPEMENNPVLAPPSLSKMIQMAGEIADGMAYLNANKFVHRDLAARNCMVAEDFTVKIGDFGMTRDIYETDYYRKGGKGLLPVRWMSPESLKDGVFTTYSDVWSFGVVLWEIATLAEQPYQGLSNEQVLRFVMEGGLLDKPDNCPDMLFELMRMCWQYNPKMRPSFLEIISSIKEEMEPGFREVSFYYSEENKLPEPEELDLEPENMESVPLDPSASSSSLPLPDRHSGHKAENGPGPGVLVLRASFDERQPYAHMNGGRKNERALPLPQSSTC

Compound	IC50 [7]	melting point	IC50 ([9]; Table 1)	further results
COc1cc(F)cc(-c2ccc3c(NC(=O)c4ccc(N5CCC(N(C)C)CC5)cc4)n[nH]c3c2)c1 [9u, 4–(4-(dimethylamino)piperidin-1-yl)-N-(6–(3-fluoro-5-methoxyphenyl)-1H-indazol-3-yl)benzamide]	3.3 nM	223.8 to 227.4 °C	–	IC50 [1]: > 1000 nM; IC50 [2]: > 1000 nM; IC50 [3]: 5.2 nM; IC50 [4]: > 1000 nM; IC50 [5]: > 1000 nM; IC50 [6]: > 100 nM; enhancement of FGFR1 inhibitory activity ([7]; compared with 9o): 1.5 fold; IC50 [8]: > 100 nM; IC50 ([9]; Table 3): 468 nM; IC50 [10]: > 1000 nM; IC50 [11]: > 1000 nM; IC50 [12]: 12.2 nM; IC50 [13]: > 100 nM; IC50 [14]: > 1000 nM; IC50 [15]: > 1000 nM
COc1cc(F)cc(-c2ccc3c(NC(=O)c4cnc(N5CCN(C)CC5)cn4)n[nH]c3c2)c1 [9z, N-(6–(3-fluoro-5-methoxyphenyl)-1H-indazol-3-yl)-5–(4-methylpiperazin-1-yl)pyrazine-2-carboxamide]	4.6 nM	237.7 to 240.3 °C	–	IC50 ([9]; Table 3): 738 nM
COc1cccc(-c2ccc3nc(NC(=O)c4ccc(N5CCN(C)CC5)cc4)sc3c2)c1 [12a, N-(6–(3-methoxyphenyl)benzo[d]thiazol-2-yl)-4–(4-methylpiperazin-1-yl) benzamide]	> 1000 nM	230.5 to 233.2 °C	> 5000 nM	–
COc1cc(OC)cc(-c2ccc3nc(NC(=O)c4ccc(N5CCN(C)CC5)cc4)sc3c2)c1 [12b, N-(6–(3,5-dimethoxyphenyl)benzo[d]thiazol-2-yl)-4–(4-methylpiperazin-1-yl) benzamide]	> 1000 nM	234.6 to 238.2 °C	> 5000 nM	–
COc1cc(-c2ccc3nc(NC(=O)c4ccc(N5CCN(C)CC5)cc4)sc3c2)cc(OC)c1OC [12c, 4–(4-methylpiperazin-1-yl)-N-(6–(3,4,5-trimethoxyphenyl)benzo[d]thiazol-2-yl)benzamide]	> 1000 nM	236.4 to 238.3 °C	> 5000 nM	–
COc1cccc(-c2ccc3nc(NC(=O)c4ccc(N5CCN(C)CC5)cc4)sc3c2)c1F [12d, N-(6–(2-fluoro-3-methoxyphenyl)benzo[d]thiazol-2-yl)-4–(4-methylpiperazin-1-yl)benzamide]	> 1000 nM	232.5 to 235.2 °C	> 5000 nM	–
CN1CCN(c2ccc(C(=O)Nc3n[nH]c(CCc4ccccc4)n3)cc2)CC1 [18a, 4–(4-methylpiperazin-1-yl)-N-(5-phenethyl-1H-1,2,4-triazol-3-yl)benzamide]	> 1000 nM	218.1 to 222.5 °C	> 5000 nM	–
COc1cc(CCc2nc(NC(=O)c3ccc(N4CCN(C)CC4)cc3)n[nH]2)cc(OC)c1 [18c, N-(5–(3,5-dimethoxyphenethyl)-1H-1,2,4-triazol-3-yl)-4–(4-methylpiperazin-1-yl)benzamide]	> 1000 nM	220.9 to 223.3 °C	> 5000 nM	–
